What was measured:
physchem = test: physchem
Method: 1) Description of Method for Determination of the log P Values (Formic Aid Method)
Eluents for determination in the acidic range (pH 3.4):
Eluent A: acetonitrile+1 ml of formic acid/liter. Eluent B: water+0.9 ml of formic acid/liter.
The lambda max values were determined in the maxima of the chromatographic signals using the UV spectra from 200 nm to 400 nm.

Myzus persicae = test: Myzus test (spray treatment); type: in vivo; conditions: foliar, application rate 500 g/ha, sprayed Chinese cabbage leaf discs, all stages of green peach aphid, read-out: efficacy in % (aphids killed)
Method: Solvent 78 parts by weight of acetone • • 1.5 parts by weight of dimethylformamide
Emulsifier: 0.5 part by weight of alkylaryl polyglycol ether
To prepare an appropriate active ingredient preparation, 1 part by weight of active ingredient is mixed with the stated amounts of solvent and emulsifier, and the concentrate is diluted with emulsifier-containing water to the desired concentration.

[1] = tested on: Myzus persicae organophosphate/carbamate resistant strain; test: Myzus spray test; conditions: application rate 100 ppm; after 6 days; sprayed aubergine plants; 100% = all insects killed
Meloidogyne incognita = Meloidogyne incognita test; type: in vivo; conditions: application rate 20 ppm; lettuce in sand with egg/larvae suspension
Method: Meloidogyne Incognita Test
Solvent: 80.0 parts by weight of acetone
Vessels are filled with sand, active ingredient solution, Meloidogyne incognita egg/larvae suspension and lettuce seeds. The lettuce seeds germinate and the plants develop. Galls develop on the roots.
After the desired time, the nematicidal action is determined by the gall formation in %. 100% means that no galls were found; 0% means that the number of galls on the treated plants corresponds to the untreated control.

[2] = reverse-phase C18 HPLC column, pH 3.4, logP (HCOOH), final compounds table, HPLC reverse-phase C18, acidic range pH 3.4, 55° C.
[3] = reverse-phase C18 HPLC column, pH 3.4, log P (HCOOH), preparation examples, HPLC-MS

Row | SMILES | chromatographic logP (physchem; pH 3.4, logP (HCOOH)) | pest or weed control at 500 g/ha (Myzus persicae) | chromatographic logP (physchem; [2]) | further results
1 | CC(=O)NS(=O)(=O)c1cccc(-c2cnn(-c3cccnc3)c2)n1 [Compound 41, N-({6-[1-(Pyridin-3-yl)-1H-pyrazol-4-yl]pyridin-2-yl}sulphonyl)acetamide] | 1.17 | 100% |  | chromatographic logP (physchem; pH 3.4, log P (HCOOH)): 1.17
2 | CCC(=O)NS(=O)(=O)c1cccc(-c2cnn(-c3cccnc3)c2)n1 [Compound 42] |  | 100% | 1.43 | 
3 | CS(=O)(=O)NC(=O)c1nc(-c2cnn(-c3cccnc3)c2)cs1 [Compound 45] | 1.16 | 90% |  | 
4 | CS(=O)(=O)NC(=O)c1nc(-c2cnn(-c3cncc(F)c3)c2)cs1 [Compound 46, 4-[1-(5-Fluoropyridin-3-yl)-1H-pyrazol-4-yl]-N-(methylsulphonyl)-1,3-thiazole-2-carboxamide] |  | 100% | 1.68 | chromatographic logP (physchem; [3]): 1.68
5 | COC(=N)c1cccc(-c2cnc(-c3cccnc3)s2)n1 [Compound 49] |  |  |  | efficacy in % [1]: 100%
6 | COC(=N)c1cccc(-c2cnc(-c3cncc(F)c3)s2)n1 [Compound 50, Methyl 6-[2-(5-fluoropyridin-3-yl)-1,3-thiazol-5-yl]pyridine-2-carboximidoate] |  |  |  | chromatographic logP (physchem; [3]): 0.9; efficacy in % [1]: 100%
7 | CS(=O)(=O)NC(=O)c1cccc(-c2cnc(-c3cncc(C#N)c3)s2)n1 [Compound 51] |  | 100% | 1.95 | 
8 | CN(C(=O)c1cccc(-c2cnc(-c3cncc(F)c3)s2)n1)S(C)(=O)=O [Compound 52] |  | 100% | 2.27 | 
9 | CN(C)S(=O)(=O)NC(=O)c1cccc(-c2cnc(-c3cncc(F)c3)s2)n1 [Compound 53] | 2.54 | 100% |  | 
10 | O=C(NS(=O)(=O)N1CCCCC1)c1cccc(-c2cnc(-c3cncc(F)c3)s2)n1 [Compound 54] |  | 100% | 3.29 | 
11 | COCCS(=O)(=O)NC(=O)c1cccc(-c2cnc(-c3cncc(F)c3)s2)n1 [Compound 55] |  | 100% | 2.19 | 
12 | CC(C)(C)S(=O)(=O)NC(=O)c1cccc(-c2cnc(-c3cncc(F)c3)s2)n1 [Compound 56] |  | 100% | 2.77 | efficacy in % (nematicidal action by gall formation) (Meloidogyne incognita): 100%
13 | O=C(NS(=O)(=O)CC(F)(F)F)c1cccc(-c2cnc(-c3cncc(F)c3)s2)n1 [Compound 57] | 2.58 | 100% |  | 
14 | Cc1noc(C)c1S(=O)(=O)NC(=O)c1cccc(-c2cnc(-c3cncc(F)c3)s2)n1 [Compound 58] |  | 100% | 3 | 
15 | Cc1nc(Cl)sc1S(=O)(=O)NC(=O)c1cccc(-c2cnc(-c3cncc(F)c3)s2)n1 [Compound 59] |  | 100% | 3.41 | 
16 | CC(C)N(C)S(=O)(=O)NC(=O)c1cccc(-c2cnc(-c3cncc(F)c3)s2)n1 [Compound 60] | 3.09 | 100% |  | 
17 | CC(C1CC1)N(C)S(=O)(=O)NC(=O)c1cccc(-c2cnc(-c3cncc(F)c3)s2)n1 (stereo not drawn) [Compound 61] | 3.47 | 100% |  | 

Row | SMILES | chromatographic logP (physchem; pH 3.4, logP (HCOOH)) | pest or weed control at 500 g/ha (Myzus persicae) | chromatographic logP (physchem; [2]) | further results
18 | CN(C)S(=O)(=O)NC(=O)c1cccc(-c2cnc(-c3cncnc3)s2)n1 [Compound 62] |  | 80% | 1.9 | 
19 | Cc1nc(-c2cncc(F)c2)sc1-c1cc(C(=O)NS(C)(=O)=O)n(C)n1 [Compound 63, 3-[2-(5-Fluoropyridin-3-yl)-4-methyl-1,3-thiazol-5-yl]-1-methyl-N-(methylsulphonyl)-1H-pyrazole-5-carboxamide] |  | 80% | 2.04 | chromatographic logP (physchem; [3]): 2.04
20 | Cc1nc(-c2cncc(F)c2)sc1-c1cc(C(=O)NS(C)(=O)=O)nn1C [Compound 64] | 1.84 | 100% |  | 
21 | CS(=O)(=O)N(CC#N)C(=O)c1cccc(-c2cnc(-c3cncc(F)c3)s2)n1 [Compound 65] |  | 90% | 2.28 | 
22 | CN(C)S(=O)(=O)NC(=O)c1cccc(-c2cnc(-c3cccnc3)s2)n1 [Compound 66] | 2.01 | 100% |  | 
23 | CC(=O)NS(=O)(=O)c1cccc(-c2cnc(-c3cncc(F)c3)s2)n1 [Compound 67] |  | 100% | 1.72 | 
24 | C#CCN(C(=O)c1cccc(-c2cnc(-c3cncc(F)c3)s2)n1)S(C)(=O)=O [Compound 68] | 2.56 | 100% |  | 
25 | CC(=O)NS(=O)(=O)c1cccc(-c2cnc(-c3cccnc3)s2)n1 [Compound 69, N-({6-[2-(Pyridin-3-yl)-1,3-thiazol-5-yl]pyridin-2-yl}sulphonyl)acetamide] | 1.3 | 100% |  | chromatographic logP (physchem; pH 3.4, log P (HCOOH)): 1.3
26 | CCS(=O)(=O)NC(=O)c1cccc(-c2nnc(-c3cncc(F)c3)s2)n1 [Compound 70] |  | 100% | 2.07 | efficacy in % (nematicidal action by gall formation) (Meloidogyne incognita): 100%
27 | O=C(NS(=O)(=O)C1CC1)c1cccc(-c2nnc(-c3cncc(F)c3)s2)n1 [Compound 71] | 2.14 | 100% |  | 
28 | CC(C)S(=O)(=O)NC(=O)c1cccc(-c2nnc(-c3cncc(F)c3)s2)n1 [Compound 72] | 2.31 | 100% |  | 
29 | O=C(NS(=O)(=O)CC(F)(F)F)c1cccc(-c2nnc(-c3cncc(F)c3)s2)n1 [Compound 73] |  | 100% | 2.42 | 
30 | COCCS(=O)(=O)NC(=O)c1cccc(-c2nnc(-c3cncc(F)c3)s2)n1 [Compound 74] | 1.97 | 90% |  | 
31 | O=C(NS(=O)(=O)c1cccs1)c1cccc(-c2nnc(-c3cncc(F)c3)s2)n1 [Compound 75] |  | 100% | 2.38 | efficacy in % (nematicidal action by gall formation) (Meloidogyne incognita): 100%
32 | CC(=O)Nc1nnc(S(=O)(=O)NC(=O)c2cccc(-c3nnc(-c4cncc(F)c4)s3)n2)s1 [Compound 76] |  | 100% | 1.43 | 
33 | CC(C)(C)S(=O)(=O)NC(=O)c1cccc(-c2nnc(-c3cncc(F)c3)s2)n1 [Compound 77] |  | 100% | 2.38 | 
34 | O=C(NS(=O)(=O)c1ccc(Cl)s1)c1cccc(-c2nnc(-c3cncc(F)c3)s2)n1 [Compound 78] |  | 100% | 3.08 | efficacy in % (nematicidal action by gall formation) (Meloidogyne incognita): 100%
